Experimental findings from PubChem BioAssay AID179 (DTP/NCI, 2004) are described below.

Calls of active or inactive are those of the source.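 How the source made its calls: active means compounds giving half or more protection of infected cells from virus-caused growth loss, again on retest; inactive means the rest.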 Where a SMILES comes first, the peptide text is derived from it. Bridges are numbered along the chain shown (N, C = ends). The star is where a group is joined. Cbz = O=C(OCc1ccccc1)*

The assay deals with CEM cells HIV-1 protection, formazan growth assay. As to the kind of experiment: NCI AIDS Antiviral Assay. Particulars: for IC50: measured here: growth of uninfected CEM cells. The method, boiled down: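 CEM (human) cells, HIV-1 infected vs uninfected, 5-point dosing, formazan growth read-out. Retest threshold 50% protection.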

In the case of `Cc1ccccc1N=Cc1ccc(N(CCC#N)S(=O)(=O)c2ccccc2)cc1`, the EC50 was more than 617 µM and the IC50 stood at 479 µM.
As for `COC(=O)C(CC(C)C)NC(=O)NC12CC3CC(CC(F)(C3)C1)C2` (configuration not stated), the EC50 is more than 75.9 µM and the IC50 is more than 75.9 µM.
On to `C(=C\N1CCCCC1)/c1nnnn1-c1ccccc1`, for which the EC50 is more than 200 µM and the IC50 is 24 µM.
As to `COc1cccc(C2C(C(=O)O)=C(CO)Oc3cc4c(cc32)OCO4)c1` (configuration not stated), the outcome was inactive.
Regarding `O=c1n(/N=C/c2ccccc2)c(=O)n2n1C1C=CC2CC1`, the EC50 is more than 200 µM and the IC50 was more than 200 µM.
`Cc1ccc(/C=C/C(=O)c2sc(C(N)=S)nc2C)cc1`: the EC50 is more than 85.1 µM and the IC50 is more than 85.1 µM.
On to `S=c1[nH]nc(CNc2ccc(-c3n[nH]c(=S)n3-c3ccc(Cl)cc3)cc2)n1-c1ccc(Cl)cc1`, for which the EC50 was more than 200 µM and the IC50 worked out at 31.6 µM.
For `CCOC(=O)C(c1ccccc1)[N+](C)(C)C` (configuration not stated), the EC50 is more than 200 µM and the IC50 is more than 200 µM.
Turning to `O=C1c2ccccc2C(=O)c2c(O)c(NCCCNCCO)cc(O)c21`, the result was inactive.
As for `CO[C@H]1/C=C/O[C@@]2(C)Oc3c(C)c(O)c4c(O)c(c(/C=N/N5CCNCC5)c(O)c4c3C2=O)NC(=O)/C(C)=C\C=C\[C@H](C)[C@H](O)[C@@H](C)[C@@H](O)[C@@H](C)C(OC(C)=O)[C@@H]1C` (some centres not stated), the EC50 is more than 200 µM and the IC50 is 50.1 µM.
In the same order, the values of `O=[N+]([O-])c1ccc(-c2nc3c(o2)CCC3)cc1` are more than 200 µM and 195 µM.
In the case of `CC1(Nc2ccccc2)OC(=O)c2ccccc21` (configuration not stated), the EC50 was more than 200 µM and the IC50 was more than 200 µM.
With `O=S(=O)(O)c1ccc(N=Nc2ccc(S(=O)(=O)O)cc2)cc1`, the outcome was inactive.
For `O=C(O)/C=C/C(=O)Nc1ccccc1-n1cccc1`, the EC50 was more than 200 µM and the IC50 is more than 200 µM.
In the case of `O=C(NCCc1c(-c2ccccc2)[nH]c2ccccc12)C(F)(F)F`, the EC50 is more than 200 µM and the IC50 was 34.7 µM.
As to `COc1ccc(N=Nc2c(N)nn3cc4c(nc23)CCCCC4)cc1`, the EC50 is more than 200 µM and the IC50 is 34.7 µM.
With `CC12C(C(=O)O)C(=O)C(C(=O)O)C1(C)C(C(=O)O)C(=O)C2C(=O)O` (configuration not stated), the EC50 was more than 525 µM and the IC50 stood at 398 µM.
In the same order, the values of `Cc1nc(C)c(N2CCN(C(=O)O)CC2)c(=O)[nH]1` are more than 200 µM and more than 200 µM.
Turning to `COc1ccc(N2C(=O)C3c4[nH]c5ccc(Br)cc5c4C4CCC(C(C)(C)C)CC4C3C2=O)cc1` (configuration not stated), the outcome was inactive.
Consider `C1=NCCNCCN=Cc2ccccc2OCc2cccc(n2)COc2ccccc21`, for which the EC50 is more than 200 µM and the IC50 was found to be 10.7 µM.
With `COc1ccc(C2=Nc3c(nc(OC)[nH]c3=O)NC(c3ccccc3)C2)cc1` (configuration not stated), the result was inactive.
Take `CC(=O)/C(N=Nc1ccc(-n2c(C)nc3ccccc3c2=O)cc1)=C(/C)O`: the EC50 is more than 200 µM and the IC50 is more than 200 µM.
In the case of `Nc1nc(N)c2ncn(C3OC(CO)CC3F)c2n1` (configuration not stated), the EC50 was 34.7 µM and the IC50 stood at 93.3 µM.
`CN1NC(c2ccccc2)=C(C#N)C(=O)CC1c1ccccc1` (configuration not stated): the EC50 was more than 200 µM and the IC50 is 93.3 µM.
In the same order, the values of `CCOC(=O)CCC(NC(=O)c1ccc(Nc2nc3ccc(C(F)(F)F)cc3nc2-c2ccccc2)cc1)C(=O)OCC` (configuration not stated) are more than 200 µM and 141 µM.
As for `Cc1cc2nc(-c3ccccn3)c(-c3ccccn3)nc2cc1C`, the EC50 is more than 200 µM and the IC50 is more than 200 µM.
As to `C=CC[C@@]12CC(C=CC13OCCO3)OC(=O)[C@@H]2C`, the EC50 was more than 200 µM and the IC50 was more than 200 µM.
For `CCOC(=O)C1(C#N)CC1`, the result was inactive.
For `NC(N)=N/N=C(\c1ccc(F)cc1)C1CC1`, the EC50 was more than 200 µM and the IC50 is 33.9 µM.
`CC[n+]1[b-](C(C)(C)C)n(/N=C/C(C)(C)C)[b-](C(C)(C)C)[n+]1CC`: the EC50 was more than 200 µM and the IC50 is more than 200 µM.
Turning to `O=c1[nH]nnc2c1cnn2C1CCCO1` (configuration not stated), the outcome was inactive.
In the case of `NC(N)=NNC(=O)CCCCCCCC(=O)NN=C(N)N`, the EC50 is 537 µM and the IC50 amounted to 676 µM.
As to `CC(=O)Nc1sc(Br)cc1S(=O)(=O)c1ccc(Cl)cc1`, the EC50 was more than 200 µM and the IC50 turned out to be 31.6 µM.
Turning to `Cc1nc(N)c(N2CCN(CN)CC2)c(=O)[nH]1`, the EC50 was more than 200 µM and the IC50 was more than 200 µM.
With `CC(O)(/C=C/c1ccccc1)P(=O)(O)c1ccccc1` (configuration not stated), the EC50 was more than 200 µM and the IC50 is more than 200 µM.
`COP(=O)(CC(=O)CCCCCOC1CCCCO1)OC` (configuration not stated): the outcome was inactive.
Turning to `O=C(O)/C=C\C(=O)NCCCNC(=O)/C=C\C(=O)O`, the EC50 was more than 933 µM and the IC50 is more than 933 µM.
Take `CC(C)OC(=O)/C=C/C(=O)O/C=C/[N+](=O)[O-]`: the EC50 was more than 200 µM and the IC50 was determined as 105 µM.
On the same counts, the results for `OC1C(O)C2CC1C1C2C2(Cl)C(Cl)=C(Cl)C1(Cl)C2(Cl)Cl` (configuration not stated) are more than 200 µM and 12.6 µM.
On the same counts, the results for `CN=c1sc2c(n1C)C(=O)c1ccccc1C2=O` are more than 200 µM and 9.33 µM.
On to `COC(=O)c1c(C)cccc1/C=C1\Cc2cc(C)cc(C)c2C1=O`, for which the EC50 is more than 200 µM and the IC50 is 151 µM.
With `Cc1ccc(S(=O)(=O)c2ccc(N)cc2)cc1`, the outcome was inactive.
For the compound `COc1ccccc1NC(=O)C(/C=N/C(=S)NNC(C)=O)=C(/C)O`, the EC50 was more than 200 µM and the IC50 is more than 200 µM.
In the case of `C/C(=N\NC(=O)CC(=O)Nc1ccccc1Cl)c1cc2cc(N=Nc3ccccc3Cl)ccc2oc1=O`, the EC50 is more than 18.6 µM and the IC50 was more than 18.6 µM.
Take `O=C(O)c1ccc(-c2ccc(C(=C(F)F)C(F)(F)F)cc2)cc1`: the outcome was inactive.
Turning to `CC1=C(C(=O)N[C@@H](CC(C)C)C(=O)O)N2C(=O)[C@@H](NC(=O)[C@@H](N)Cc3ccccc3)[C@H]2SC1`, the EC50 was more than 200 µM and the IC50 was determined as 85.1 µM.
For the compound `COC(=O)C1CCCCNC(=O)CCC(NC(=O)OCc2ccccc2)C(=O)N1` (stereo not drawn) (Cbz-Glu-Lys-OMe; lactam 1-2; configuration not given here), the EC50 was more than 200 µM and the IC50 is more than 200 µM.
As for `COC(=O)[C@H]1N[C@@H](C(=O)OC)C23CCC[C@H]2CC[C@]1(C(OC)OC)C3`, the EC50 is more than 708 µM and the IC50 was 389 µM.
On the same counts, the results for `C/C=C(/C)C(=O)O[C@H]1C[C@@H]2[C@@H](O)c3occ(C)c3C[C@]2(C)[C@@H](C)C1` are more than 200 µM and 10.5 µM.
Take `Clc1ccc(CSc2cnnc3ccccc23)cc1`: the EC50 is more than 61.7 µM and the IC50 was more than 61.7 µM.
For `CC(=O)OCC(OC(C)=O)C(OC(C)=O)C(OC(C)=O)C(/C=N\Nc1nc2ccccc2c(=O)[nH]1)OC(C)=O` (configuration not stated), the EC50 was more than 200 µM and the IC50 is more than 200 µM.
With `C=CCOC(=O)C1C2OC3(C(C(=O)OC)=C2C(=O)OC)c2ccccc2CCC13` (configuration not stated), the EC50 is more than 200 µM and the IC50 was 1.15 µM.
In the case of `COC(=O)C1CCC(=O)N1C(c1ccccc1)c1ccc(OC)c(OC)c1` (configuration not stated), the EC50 is more than 200 µM and the IC50 is more than 200 µM.
Consider `O=c1ccn(C2CC(O)C(CO)O2)c(=O)[nH]1` (configuration not stated), for which the EC50 was more than 589 µM and the IC50 is 309 µM.
Regarding `O=C(O)c1ccccc1NC(=O)C1CCCCC1`, the outcome was inactive.
For `C=C(Br)CN1CCC2(c3ccccc3)C(O)C([Se]c3ccccc3)CCC12` (configuration not stated), the EC50 was more than 27.5 µM and the IC50 is more than 27.5 µM.
Regarding `O=C(CCC/C(CC(=O)c1ccc(Cl)cc1)=N\NC(=O)c1cc2ccccc2cc1O)Nc1cccc([N+](=O)[O-])c1`, the result was inactive.
For the compound `O=C(CCc1cc(-c2ccccc2)nc(=S)[nH]1)Nc1ccccc1[N+](=O)[O-]`, the EC50 is more than 661 µM and the IC50 is more than 661 µM.
Take `CCOC(=O)c1ccc(N=[N+]([O-])c2ccc(C(=O)OCC)cc2)cc1`: the EC50 is more than 100 µM and the IC50 is more than 100 µM.
`CCCCCCCCCc1cc(O)c(O)cc1CCCCCCCCC`: the EC50 is more than 100 µM and the IC50 came out at 47.9 µM.
Regarding `O=C(CCc1cc(-c2ccco2)n(-c2ccc([N+](=O)[O-])cc2[N+](=O)[O-])n1)Nc1ccccc1`, the EC50 was more than 41.7 µM and the IC50 is more than 41.7 µM.
In the case of `CCC1C(=O)OC2OC(c3ccccc3)(c3ccccc3)NC21` (configuration not stated), the EC50 is more than 200 µM and the IC50 was more than 100 µM.
Turning to `O=C1CC(=O)N(c2ccccc2)N1/C(=C/c1ccccc1)c1ccccc1`, the EC50 was more than 200 µM and the IC50 stood at 9.33 µM.
In the case of `O=C(N/C(=C\c1ccc(Oc2ccc(Cl)c(Cl)c2)cc1)c1nc2ccccc2[nH]1)c1ccccc1`, the result was inactive.
For the compound `O=c1oc2ccccc2c(O)c1C(c1ccc(/C=C/c2ccccc2)cc1)c1c(O)c2ccccc2oc1=O`, the EC50 was more than 200 µM and the IC50 was found to be 15.1 µM.
As to `Nc1ncnc2c1ncn2C1OC(CO)C2NP(=O)(N(CCCl)CCCl)OC21` (configuration not stated), the EC50 is more than 200 µM, the result was inactive and the IC50 was more than 200 µM.
Regarding `CCOC(=O)NC(=O)c1c[nH]c(=O)[nH]c1=O`, the EC50 is more than 1100 µM and the IC50 is more than 1100 µM.
Regarding `c1ccc(C2(c3ccccc3)SCCCS2)cc1`, the EC50 was more than 19.1 µM and the IC50 was more than 19.1 µM.
As to `CN(N)c1cnn(-c2ccccc2)c(=O)c1Cl`, the EC50 was more than 200 µM and the IC50 was more than 200 µM.
As for `CC(C)(C)c1cc(C2COC(=O)COCC(=O)OCCOCCOCCO2)cc(C(C)(C)C)c1O` (configuration not stated), the EC50 was more than 200 µM and the IC50 was found to be 95.5 µM.
Take `CC1SC(N)=NN=C1c1c(O)c2ccccc2oc1=O` (configuration not stated): the EC50 was more than 200 µM and the IC50 came to 148 µM.
In the case of `COC1OC(OCCC#N)C(OCCC#N)C(OCCC#N)C1OCCC#N` (configuration not stated), the EC50 was more than 200 µM and the IC50 was more than 200 µM.
